Measured values published in PubChem BioAssay (NCI).
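Interpolation was linear, between the two tested concentrations surrounding the appropriate level; five concentrations were tested over 48 hours in 96-well plates. At the GI50, growth is halved. TGI denotes the concentration required for complete inhibition of growth.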

Legend:
Experiment in all cases: NCI-60 cell line screen, 48 h
786-0 renal = test system: 786-0 renal
A498 renal = test system: A498 renal
A549 NSCLC = test system: A549 NSCLC
ACHN renal = test system: ACHN renal
BT-549 breast = test system: BT-549 breast
CAKI-1 renal = test system: CAKI-1 renal
CCRF-CEM leukemia = test system: CCRF-CEM leukemia
COLO 205 colon = test system: COLO 205 colon
DU-145 prostate = test system: DU-145 prostate
EKVX NSCLC = test system: EKVX NSCLC
HCC-2998 colon = test system: HCC-2998 colon
HCT-116 colon = test system: HCT-116 colon
HCT-15 colon = test system: HCT-15 colon
HL-60(TB) leukemia = test system: HL-60(TB) leukemia
HOP-62 NSCLC = test system: HOP-62 NSCLC
HOP-92 NSCLC = test system: HOP-92 NSCLC
HS 578T breast = test system: HS 578T breast
HT29 colon = test system: HT29 colon
IGROV1 ovarian = test system: IGROV1 ovarian
K-562 leukemia = test system: K-562 leukemia
KM12 colon = test system: KM12 colon
LOX IMVI melanoma = test system: LOX IMVI melanoma
M14 melanoma = test system: M14 melanoma
MALME-3M melanoma = test system: MALME-3M melanoma
MCF7 breast = test system: MCF7 breast
MDA-MB-231 breast = test system: MDA-MB-231 breast
MDA-MB-435 = test system: MDA-MB-435
MDA-MB-468 breast = test system: MDA-MB-468 breast
MOLT-4 leukemia = test system: MOLT-4 leukemia
NCI-H226 lung = test system: NCI-H226 lung
NCI-H23 lung = test system: NCI-H23 lung
NCI-H460 lung = test system: NCI-H460 lung
NCI-H522 lung = test system: NCI-H522 lung
NCI/ADR-RES ovarian = test system: NCI/ADR-RES ovarian
OVCAR-3 ovarian = test system: OVCAR-3 ovarian
OVCAR-4 ovarian = test system: OVCAR-4 ovarian
OVCAR-5 ovarian = test system: OVCAR-5 ovarian
OVCAR-8 ovarian = test system: OVCAR-8 ovarian
PC-3 prostate = test system: PC-3 prostate
RPMI-8226 leukemia = test system: RPMI-8226 leukemia
RXF 393 renal = test system: RXF 393 renal
SF-268 CNS = test system: SF-268 CNS
SF-295 CNS = test system: SF-295 CNS
SF-539 CNS = test system: SF-539 CNS
SK-MEL-2 melanoma = test system: SK-MEL-2 melanoma
SK-MEL-28 melanoma = test system: SK-MEL-28 melanoma
SK-MEL-5 melanoma = test system: SK-MEL-5 melanoma
SK-OV-3 ovarian = test system: SK-OV-3 ovarian
SN12C renal = test system: SN12C renal
SNB-19 CNS = test system: SNB-19 CNS
SNB-75 CNS = test system: SNB-75 CNS
SR leukemia = test system: SR leukemia
SW-620 colon = test system: SW-620 colon
T-47D breast = test system: T-47D breast
TK-10 renal = test system: TK-10 renal
U251 CNS = test system: U251 CNS
UACC-257 melanoma = test system: UACC-257 melanoma
UACC-62 melanoma = test system: UACC-62 melanoma
UO-31 renal = test system: UO-31 renal

Compound: O=C1Nc2cc(-c3ccc(NS(=O)(=O)c4ccc([N+](=O)[O-])cc4)cc3)ccc2/C1=C/c1ccc[nH]1
- GI50 (786-0 renal): 14.4 µM
- TGI (786-0 renal): 31.1 µM
- GI50 (A498 renal): 18.4 µM
- TGI (A498 renal): 50.1 µM
- GI50 (A549 NSCLC): 12.1 µM
- TGI (A549 NSCLC): 28.9 µM
- GI50 (ACHN renal): 12.1 µM
- TGI (ACHN renal): 26.9 µM
- GI50 (BT-549 breast): 10.5 µM
- TGI (BT-549 breast): 34.8 µM
- GI50 (CAKI-1 renal): 14.1 µM
- TGI (CAKI-1 renal): 36.6 µM
- GI50 (CCRF-CEM leukemia): 13.6 µM
- TGI (CCRF-CEM leukemia): > 100 µM
- GI50 (COLO 205 colon): 16 µM
- TGI (COLO 205 colon): 47.9 µM
- GI50 (DU-145 prostate): 16 µM
- TGI (DU-145 prostate): 33.6 µM
- GI50 (EKVX NSCLC): 2280 nM
- TGI (EKVX NSCLC): 32.7 µM
- GI50 (HCC-2998 colon): 18.6 µM
- TGI (HCC-2998 colon): > 100 µM
- GI50 (HCT-116 colon): 13.2 µM
- TGI (HCT-116 colon): 29 µM
- GI50 (HCT-15 colon): 11 µM
- TGI (HCT-15 colon): 33.8 µM
- GI50 (HL-60(TB) leukemia): 27.6 µM
- TGI (HL-60(TB) leukemia): > 100 µM
- GI50 (HOP-62 NSCLC): 18 µM
- TGI (HOP-62 NSCLC): 44.1 µM
- GI50 (HOP-92 NSCLC): 14.2 µM
- TGI (HOP-92 NSCLC): 39.6 µM
- GI50 (HS 578T breast): 22.5 µM
- TGI (HS 578T breast): > 100 µM
- GI50 (HT29 colon): 14.8 µM
- TGI (HT29 colon): 34 µM
- GI50 (IGROV1 ovarian): 19.4 µM
- TGI (IGROV1 ovarian): > 100 µM
- GI50 (K-562 leukemia): 11.5 µM
- TGI (K-562 leukemia): > 100 µM
- GI50 (KM12 colon): 14.3 µM
- TGI (KM12 colon): 65.6 µM
- GI50 (LOX IMVI melanoma): 13.7 µM
- TGI (LOX IMVI melanoma): 27.2 µM
- GI50 (M14 melanoma): 13.8 µM
- TGI (M14 melanoma): 43.1 µM
- GI50 (MALME-3M melanoma): 15.7 µM
- TGI (MALME-3M melanoma): 37.4 µM
- GI50 (MCF7 breast): 1740 nM
- TGI (MCF7 breast): 14.1 µM
- GI50 (MDA-MB-231 breast): 16.8 µM
- TGI (MDA-MB-231 breast): 38.6 µM
- GI50 (MDA-MB-435): 16.1 µM
- TGI (MDA-MB-435): 42.8 µM
- GI50 (MDA-MB-468 breast): 778 nM
- TGI (MDA-MB-468 breast): 7.33 µM
- GI50 (MOLT-4 leukemia): 8.77 µM
- TGI (MOLT-4 leukemia): > 100 µM
- GI50 (NCI-H226 lung): 12.2 µM
- TGI (NCI-H226 lung): 30.1 µM
- GI50 (NCI-H23 lung): 6.59 µM
- TGI (NCI-H23 lung): 26.8 µM
- GI50 (NCI-H460 lung): 9.97 µM
- TGI (NCI-H460 lung): 32.2 µM
- GI50 (NCI-H522 lung): 6.54 µM
- TGI (NCI-H522 lung): 28 µM
- GI50 (NCI/ADR-RES ovarian): 14.8 µM
- TGI (NCI/ADR-RES ovarian): 50.9 µM
- GI50 (OVCAR-3 ovarian): 13.9 µM
- TGI (OVCAR-3 ovarian): 32.4 µM
- GI50 (OVCAR-4 ovarian): 10.9 µM
- TGI (OVCAR-4 ovarian): 92.6 µM
- GI50 (OVCAR-5 ovarian): 18.1 µM
- TGI (OVCAR-5 ovarian): 50.2 µM
- GI50 (OVCAR-8 ovarian): 15.8 µM
- TGI (OVCAR-8 ovarian): 36.2 µM
- GI50 (PC-3 prostate): 11.6 µM
- TGI (PC-3 prostate): 65.2 µM
- GI50 (RPMI-8226 leukemia): 6.15 µM
- TGI (RPMI-8226 leukemia): 73.6 µM
- GI50 (RXF 393 renal): 13.3 µM
- TGI (RXF 393 renal): 31.6 µM
- GI50 (SF-268 CNS): 16.4 µM
- TGI (SF-268 CNS): 80.4 µM
- GI50 (SF-295 CNS): 11.4 µM
- TGI (SF-295 CNS): 41.3 µM
- GI50 (SF-539 CNS): 10.9 µM
- TGI (SF-539 CNS): 23.8 µM
- TGI (SK-MEL-2 melanoma): 71.4 µM
- GI50 (SK-MEL-28 melanoma): 12.3 µM
- TGI (SK-MEL-28 melanoma): 28 µM
- GI50 (SK-MEL-5 melanoma): 19.9 µM
- TGI (SK-MEL-5 melanoma): 72.7 µM
- GI50 (SK-OV-3 ovarian): 18.2 µM
- TGI (SK-OV-3 ovarian): 49.8 µM
- GI50 (SN12C renal): 14.6 µM
- TGI (SN12C renal): 34.8 µM
- GI50 (SNB-19 CNS): 16.3 µM
- TGI (SNB-19 CNS): 56.6 µM
- GI50 (SNB-75 CNS): 20.4 µM
- TGI (SNB-75 CNS): > 100 µM
- GI50 (SR leukemia): 10.3 µM
- TGI (SR leukemia): > 100 µM
- GI50 (SW-620 colon): 21 µM
- TGI (SW-620 colon): 51.2 µM
- GI50 (T-47D breast): 4.77 µM
- TGI (T-47D breast): > 100 µM
- GI50 (TK-10 renal): 16.4 µM
- TGI (TK-10 renal): 51.3 µM
- GI50 (U251 CNS): 13.6 µM
- TGI (U251 CNS): 27.3 µM
- GI50 (UACC-257 melanoma): 11.1 µM
- TGI (UACC-257 melanoma): 44.3 µM
- GI50 (UACC-62 melanoma): 10.3 µM
- TGI (UACC-62 melanoma): 29.7 µM
- GI50 (UO-31 renal): 6.74 µM
- TGI (UO-31 renal): > 100 µM
